Results as given in patent US4661592A, “4H-pyrimido[2,1-a]isoquinolin-4-one derivatives” (G. D. Searle & Co., priority 1984, dated 1987).

Test: Food intake test in food-deprived rats (anorectic activity)
Assay type: in vivo, Male Sprague-Dawley derived rats
Conditions: rat, 32.0 mg/kg i.g., 24 h food-deprived, food given 30 min after dosing; for Food Intake, % of control, 1 Hr.: 1 hour intake; for Food Intake, % of control, 2 Hr.: 2 hour intake; for Food Intake, % of control, 6 Hr.: 6 hour intake
Method: Male Sprague-Dawley derived rats, Charles River Breeders (Portage, MI), weighing between 200-400 grams at the time of testing, were employed in the food intake studies and water intake studies. The rats were housed individually and kept on a 12 hour light-dark-light cycle. The room temperature ranged between 23°-25° C. The rats employed in food intake testing were food deprived on the day preceding testing and were divided into experimental groups that were matched on the basis of average daily food intake and body weight. At approximately 24 hour post-deprivation, the rats were administered a test sample containing as the active ingredient a compound of the present invention. All test samples employed herein were prepared and homogenized in a vehicle of normal saline (to which a few drops of PG/Tween 80 was added). The test samples were administered at an injection volume of 2 ml/kg, unless otherwise stated. Thirty minutes following administration of the test samples, pre-weighed food jars containing ground meal were placed in the rats' cages. (Prior to testing the rats were given ground meal for a minimum of 3 days to familiarize the rats with this food.) After 1, 2 and 6 hours of food access, the jars were removed, weighed and returned to the rats' cages providing a 1, 2 and 6 hours intake measurement. […] The results obtained are represented in Table I as a percent of control values. A student t test was used for making statistical comparisons, and the p-values are based upon two-tailed comparisons. The compound employed as the active ingredient on the test sample is indicated by the example number which describes its preparation.

| Structure (SMILES) | Food Intake, % of control, 1 Hr. | Food Intake, % of control, 2 Hr. | Food Intake, % of control, 6 Hr. |
| --- | --- | --- | --- |
| CN(C)CCNC(=O)c1cnc2c3ccccc3ccn2c1=O [Example 5] | 82.4 % of control | 87.5 % of control | 88.3 % of control |
| CC(=O)OCc1cnc2c3ccccc3ccn2c1=O [Example 2, 3-(hydroxymethyl)-4H-pyrimido[2,1-a]isoquinolin-4-one acetate] | 51.4 % of control | 67.1 % of control | 89.8 % of control |
| O=c1c(CO)cnc2c3ccccc3ccn12 [Example 1, 3-(hydroxymethyl)-4H-pyrimido [2,1-a]isoquinolin-4-one] | 61.8 % of control | 77.4 % of control | 90.4 % of control |
| Cl.Cl.NCc1cnc2c3ccccc3ccn2c1=O [Example 3, 3-(aminomethyl)-4H-pyrimido[2,1-a]isoquinolin-4-one, dihydrochloride] | 51.3 % of control | 71.4 % of control | 92.3 % of control |
| CCN(CC)CCOCc1cnc2c3ccccc3ccn2c1=O.Cl.Cl [Example 4, 3-[[2-(diethylamino)ethoxy]methyl]-4H-pyrimido[2,1-a]isoquinolin-4-one dihydrochloride] | 70.8 % of control | 80.8 % of control | 90.9 % of control |
